# From patent publication US11447529B2, “Microcin MccY, and preparation method and use thereof” (South China Agricultural University, priority 2021, dated 2022)
# Legend:
# Assay in all cases: Bacteriostatic ring test on double-layer agar
# Assay type in all cases: cell-based
# [1] = tested on: Salmonella Infantis (strain name: CMCC50041); conditions: 50 μL filtrate (combination 25 uL + 25 uL), double-layer LB agar, 37° C., 18 h; FIG. 2
# Method: (§1) Salmonella kentucky (strain name: BNCC239114), Salmonella Infantis (strain name: CMCC50041) and Salmonella london (strain name: CVCC2206) were respectively resuscitated in a LB agar plate (with the formula as shown in Table 4) (cultured in a 5% CO2 incubator at 37° C. for 16 h). Single colonies were picked and subjected to shaking culture until OD600=0.8. The bacterial solution was inoculated into a soft agar medium containing 5% LB (with the formula as shown in Table 5) at about 42° C. in a proportion of 1:1,000, and then spread onto a LB agar plate to form an upper and lower double-layer agar medium. 30 min later, after the soft agar was cooled and solidified, a mixed solution of 50 μL of the filtrate obtained in Example 1 (the Microcin MccY), 50 μL of the filtrate obtained in Example 2, 50 μL of the filtrate obtained in Example 3 (the Microcin MccJ25), 25 uL of the filtrate obtained in Example 1 (the Microcin MccY) and 25 uL of the filtrate obtained in Example 3 (the Microcin MccJ25) was taken and added into the upper and lower double-layer agar medium containing […]. The upper and lower double-layer agar medium was then placed into a 5% CO2 bacterial incubator at 37° C. for static culture for 18 h, and then observed for a bacteriostatic ring.
# [2] = tested on: Salmonella kentucky (strain name: BNCC239114); conditions: 50 μL filtrate (combination 25 uL + 25 uL), double-layer LB agar, 37° C., 18 h; FIG. 2
# Method: as §1
# [3] = tested on: Salmonella london (strain name: CVCC2206); conditions: 50 μL filtrate (combination 25 uL + 25 uL), double-layer LB agar, 37° C., 18 h; FIG. 2
# Method: as §1
# [4] = tested on: Salmonella enteritidis (strain name: CVCC3377); conditions: 50 μL filtrate (combination 25 uL + 25 uL), double-layer LB agar, 37° C., 18 h; FIG. 1
# Method: as §1, with “Pullorum” for “kentucky”, “CVCC1800),” for “BNCC239114),”, “enteritidis” for “Infantis”, “CVCC3377)” for “CMCC50041)”, “typhimurium” for “london”, “ATCC14028)” for “CVCC2206)”
# [5] = tested on: Shigella sonnei (strain name: CMCC51592); conditions: 50 μL filtrate, double-layer LB agar, 37° C., 18 h; FIG. 3
# Method: (§2) Shigella flexneri (strain name: CMCC51572) and Shigella sonnei (strain name: CMCC51592) were respectively resuscitated in a LB agar plate (with the formula as shown in Table 4) (cultured in a 5% CO2 incubator at 37° C. for 16 h). Single colonies were picked and subjected to shaking culture until OD600=0.8. The bacterial solution was inoculated into a soft agar medium containing 5% LB (with the formula as shown in Table 5) at about 42° C. in a proportion of 1:1,000, and then spread onto a LB agar plate to form an upper and lower double-layer agar medium. 30 min later, after the soft agar was cooled and solidified, each 50 μL of the filtrate obtained in Example 1 (the Microcin MccY) and methanol were respectively taken and added into the upper and lower double-layer agar medium containing Shigella flexneri and Shigella sonnei (the control group was added with the same amount of the filtrate obtained in Example 2). The upper and lower double-layer agar medium was then placed into a 5% CO2 bacterial incubator at 37° C. for static culture for 18 h, and then observed for a bacteriostatic ring.
# [6] = tested on: Shigella flexneri (strain name: CMCC51572); conditions: 50 μL filtrate, double-layer LB agar, 37° C., 18 h; FIG. 3
# Method: as §2
# [7] = tested on: Salmonella typhimurium (strain name: ATCC14028); conditions: 50 μL filtrate (combination 25 uL + 25 uL), double-layer LB agar, 37° C., 18 h; FIG. 1
# Method: as §1, with “Pullorum” for “kentucky”, “CVCC1800),” for “BNCC239114),”, “enteritidis” for “Infantis”, “CVCC3377)” for “CMCC50041)”, “typhimurium” for “london”, “ATCC14028)” for “CVCC2206)”
# [8] = tested on: Salmonella Pullorum (strain name: CVCC1800); conditions: 50 μL filtrate (combination 25 uL + 25 uL), double-layer LB agar, 37° C., 18 h; FIG. 1
# Method: as §1, with “Pullorum” for “kentucky”, “CVCC1800),” for “BNCC239114),”, “enteritidis” for “Infantis”, “CVCC3377)” for “CMCC50041)”, “typhimurium” for “london”, “ATCC14028)” for “CVCC2206)”
Substance,bacteriostatic effect (bacteriostatic ring) against Salmonella Infantis [1],bacteriostatic effect (bacteriostatic ring) against Salmonella kentucky [2],bacteriostatic effect (bacteriostatic ring) against Salmonella london [3],bacteriostatic effect (bacteriostatic ring) against Salmonella enteritidis [4],bacteriostatic effect (bacteriostatic ring) against Shigella sonnei [5],bacteriostatic effect (bacteriostatic ring) against Shigella flexneri [6],bacteriostatic effect (bacteriostatic ring) against Salmonella typhimurium [7],bacteriostatic effect (bacteriostatic ring) against Salmonella Pullorum [8]
MccJ25: Known Microcin MccJ25 (SEQ ID NO.10); tested as filtrate expressed by pET-28a(+)-MccJ25-containing BL21(DE3) bacteria (GGAGHVPEYFVGIGTPISFYG; Primer) [reference compound],no inhibitory effect,no inhibitory effect,no inhibitory effect,inhibitory effect,–,–,–,–
MccY: Microcin with amino acid sequence GGRGHIAEYFSGPITQVSFYG (SEQ ID NO.1); tested as filtrate expressed by pET-28a(+)-MccY-containing BL21(DE3) bacteria (Primer),inhibitory effects,inhibitory effects,inhibitory effects,–,sensitive,not sensitive,inhibitory effects,inhibitory effects
